Data on 1 molecule can be found in US20110124579A1, “SIALIC ACID TO SUPPORT SALIVATION” (NESTEC S.A., priority 2008, published 2011).

“Also recorded” adds a separate entry of the source.

In the assay the test system is rats. As to the kind of experiment: Pilocarpine stimulated salivation (cholinergic neuronal activity) in young adult and aged rats after 3 weeks on diet. The assay is classed as in vivo, rat. The procedure:
Young adult (3 months) and aged rats (24 months) were fed a semisynthetic diet containing sialic acid at a concentration of 0.15 g/100 g diet (control) or a semi-synthetic diet additionally supplemented with sialic acid to a final concentration of 0.9 g/100 g diet (Sia).
After 3 weeks on the experimental diet neuronal activity of cholinergic neurons was assessed. To this end rats were injected pilocarpine (IP, 1.5 mg/kg body weight for 24 months rats and 2 mg/kg body weight for 3 months rats). Pilocarpine is a muscarinic agonist acting on cholinergic neurons, which leads to salivation. Thus stimulated saliva collection was timed with a chronometer. After about 7 minutes collection was stopped.

Regarding `CC(=O)N[C@H]1[C@H]([C@H](O)[C@H](O)CO)OC(O)(C(=O)O)C[C@@H]1O` (some centres unmarked) [sialic acid, N-acetylneuraminic acid], the “stimulated salivation / neuronal activity of cholinergic neurons (stimulated saliva production per time)” value (aged rats (24 months), diet supplemented with sialic acid to 0.9 g/100 g diet vs control 0.15 g/100 g, 3 weeks, pilocarpine IP 1.5 mg/kg, 1.5 mg/kg) is given as “increased stimulated salivation equal to the salivation found in young animals; also recorded: significantly increased neuronal activity; also recorded: reached similar stimulated salivation values as the young animals; also recorded: proper salivation was re-established in aged animals”. In addition, the “Pilocarpine stimulated salivation, aged vs young adult rats” value (young adult (3 m) and old age (24 m) rats, NeuAc enriched diet vs control diet for 3 weeks, FIG. 2, N=8-10) is listed as “increased stimulated salivation in aged rats much more efficiently than in young adult rats”.
